Counter-ions that a name gives are not always drawn. Like-named read-outs stand apart in the source and are kept apart here.
Columns and labels:
[1] = In vitro dissolution rate test in phosphate buffer (1000 ml, 50 turns per minute, HPLC); format: physicochemical; parameters: unit not given here
Description: PVP was used as the carrier material. The solid dispersion is prepared by solvent method (drug:carrier=1:10), and the method to evaluate solubility in vitro is given as follows:
Using this method, 5 ml of the solution was taken at 5 min, 10 min, 15 min, 20 min, 30 min, 45 min, and 60 min (5 ml dissolution medium was supplemented after the 5 ml solution was taken out) and filtered. The filtrate was taken as the test solution and checked for purity using HPLC.
(2) A solid dispersion which contains the drug substance 5 mg, according to the method of dissolution rate test and 1000 ml at pH 6.8 phosphate buffer was used as dissolution medium, with a rotating speed of 50 turns per minute. Using this method, 5 ml of the solution was taken at 5 min, 10 min, 15 min, 20 min, 30 min, 45 min, and 60 min (5 ml dissolution medium was supplemented after the 5 ml solution was taken out) and filtered. The filtrate was taken as the test solution and checked for purity using HPLC.
The dissolution rate of examples 1-11 were evaluated by the evaluation system mentioned above.
The dissolution rate was evaluated in pH 4.5 phosphate buffer:
The dissolution rate was evaluated in pH6.8 phosphate buffer: […]

[2] = cited from earlier work
[3] = drugs administrated alone; cited from earlier work
[4] = In vitro dissolution rate test in phosphate buffer (1000 ml, 50 turns per minute, HPLC); format: physicochemical

With CC(=O)Oc1cc2c(s1)CCN(C(C(=O)C1CC1)c1ccccc1F)C2 (stereo not drawn) [Prasugrel hydrochloride, prasugrel hydrochloride] the dissolution rate ([1]; pH 4.5 phosphate buffer, 0 min) was 0, the dissolution rate ([1]; pH 4.5 phosphate buffer, 5 min) was 16.71 and the dissolution rate ([1]; pH 4.5 phosphate buffer, 10 min) was 26.66. For the same compound, the dissolution rate ([1]; pH 4.5 phosphate buffer, 15 min) was 32.45, the dissolution rate ([1]; pH 4.5 phosphate buffer, 20 min) was 36.78 and the dissolution rate ([1]; pH 4.5 phosphate buffer, 30 min) was 43.42. For the same compound, the dissolution rate ([1]; pH 6.8 phosphate buffer, 0 min) was 0, the dissolution rate ([1]; pH 6.8 phosphate buffer, 5 min) was 13.69 and the dissolution rate ([1]; pH 6.8 phosphate buffer, 15 min) was 21.03. The dissolution rate ([1]; pH 6.8 phosphate buffer, 30 min) was 23.99, the dissolution rate ([1]; pH 6.8 phosphate buffer, 45 min) was 25.13 and the dissolution rate ([1]; pH 6.8 phosphate buffer, 60 min) was 25.62. For the same compound, the solubility ([2]; pH 1-4) was “slightly soluble”, the solubility ([2]; pH 5) was “very slightly soluble” and the solubility ([2]; pH 6-7) was “insoluble”. The “bioavailability, hydrochloride vs free base form” value [3] was “about equal”.

With CC(=O)Oc1cc2c(s1)CCN(C(C(=O)C1CC1)c1ccccc1F)C2 (stereo not drawn) [prasugrel, 5-(2-cyclopropyl-1-(2-fluorophenyl)-2-oxoethyl)-4,5,6,7-tetrahydrothieno[3,2-c]pyridin-2-yl acetate] the “dissolution rate after micronization only” value ([4]; pH4.5 and pH6.8, compared to prasugrel hydrochloride prepared by only micronization) was “improved, but there is still a gap” and the “solubility after micronization only” value ([4]; pH 6.8, compared to prasugrel hydrochloride) was “poorer than that of prasugrel hydrochloride”.
